In patent US11673866B2, “Estrogen receptor beta ligands for the prevention and treatment of multiple sclerosis (MS) and other demyelinating, inflammatory and neurodegenerative diseases” (The Board of Trustees of the University of Illinois, priority 2018, dated 2023):
Entries after “also recorded” stand apart in the source; their conditions may differ.

How the values were obtained:
[1] = test system: MOG35-55-stimulated splenocytes; experiment: Cytokine and chemokine production by splenocytes from EAE mice (Luminex); assay type: in vivo, mouse; set-up: key to Peripheral Inflammatory Cytokines: IFNγ / Peripheral Inflammatory Cytokines: IL-lβ / Peripheral Inflammatory Cytokines: IL-2 / Peripheral Inflammatory Cytokines: IL-6 / Peripheral Inflammatory Cytokines: IL-17 / Peripheral Inflammatory Cytokines: TNFα / Peripheral Th2 & Anti-inflammatory Cytokines: IL-4 / Peripheral Th2 & Anti-inflammatory Cytokines: IL-5 / Peripheral Th2 & Anti-inflammatory Cytokines: IL-10 / Peripheral Th2 & Anti-inflammatory Cytokines: IL-13 / Peripheral Chemokines: CXCL1 / Peripheral Chemokines: CXCL10: ‘+’ indicate marker was significantly (p ≤ 0.05) increased in treatment group relative to vehicle; ‘−’ indicates marker was significantly (p ≤ 0.05) decreased in treatment group relative to vehicle; ○: ‘o’ indicate marker did not change relative to vehicle; conditions: for Peripheral Chemokines: CXCL1 / Peripheral Chemokines: CXCL10 / Peripheral Inflammatory Cytokines: IFNγ / Peripheral Inflammatory Cytokines: IL-2 / Peripheral Inflammatory Cytokines: IL-6 / Peripheral Inflammatory Cytokines: IL-17 / Peripheral Inflammatory Cytokines: IL-lβ / Peripheral Inflammatory Cytokines: TNFα / Peripheral Th2 & Anti-inflammatory Cytokines: IL-4 / Peripheral Th2 & Anti-inflammatory Cytokines: IL-5 / Peripheral Th2 & Anti-inflammatory Cytokines: IL-10 / Peripheral Th2 & Anti-inflammatory Cytokines: IL-13: vs vehicle
Experimental: Splenocyte Isolation & Cytokine Analysis: On day 20-21 after induction of EAE, spleens were harvested prior to transcardial perfusion. Spleens were dissected from anesthetized mice and mechanically dissociated into a single cell suspension in cold RPMI 1640 supplemented with pyruvate, L-glutamine, and 10% fetal bovine serum (henceforth referred to as RPMI). Red blood cells were lysed by incubation with ACK buffer (VWR), washed, counted, and resuspended in RPMI for cytokine analysis. Splenocytes were then stimulated with 25 μg/ml MOG35-55 and supernatants were collected 48 hours later (Khalaj et al., 2013; Moore et al., 2013). Levels of the anti-inflammatory cytokines: IL-10, IL-13, IL-4 and IL-5; pro-inflammatory cytokines IFNγ, IL-17, IL-1β TNFα, IL-6 and IL-2; and chemokines: CXCL1, CXCL10 were determined by Cytokine Mouse Magnetic Panel for Luminex (Thermo Fisher Scientific; Waltham, Mass.) and run on the xMAP MAGPIX 100™ instrument (Luminex Corporation, Austin, Tx) according to manufacturer's instructions.
During MS and EAE, peripherally activated leukocytes secrete inflammatory cytokines and chemokines as they migrate into the CNS, where they contribute to demyelination and axon damage (Fletcher et al., 2010). To characterize the effects of IndCl analogues on the peripheral immune response, splenocytes were isolated from mice 21 days post-immunization and stimulated ex vivo with MOG35-55 peptide for cytokine and chemokine analysis using a magnetic bead-based 20-plex cytokine/chemokine detection assay. Cytokines related to inflammation, CD4+ T cell polarization, immune regulation, and chemokines associated with OL apoptosis and myelination that were measured in collected supernatants are presented below.

[2] = test system: myelin basic protein (MBP) in thoracic spinal cord ventral column; experiment: MBP immunoreactivity in thoracic ventral column white matter of EAE mice; assay type: in vivo, mouse; conditions: therapeutic treatment (postEAE), vs vehicle
Experimental: Histological Preparation of Tissues: Mice were deeply anesthetized by isoflurane (Piramal Healthcare) inhalation and perfused transcardially with phosphate buffered saline (PBS), followed by 10% formalin (Thermo Fisher Scientific) to fix tissues. Brains and spinal cords were dissected and post-fixed in 10% formalin (Thermo Fisher Scientific) for 24 hours, then cryoprotected in 30% sucrose (EMD Millipore, Darmstadt, Germany) for 48 hours and embedded in gelatin for sectioning. Embedded brains and spinal cords were then cut into 40-μm coronal sections using an HM525 NX cryostat (Thermo Fisher Scientific). Sections were collected serially and stored in PBS with 1% sodium azide at 4° C. until staining by immunohistochemistry, following a previously described protocol (Crawford et al., 2010; Moore et al., 2014).
Immunohistochemistry: Before histological staining, 40-μm free floating sections were thoroughly washed with PBS to remove residual sodium azide (Crawford et al., 2010). Sections were permeabilized with 0.3% Triton X-100 in ix PBS and 15% normal goat serum (NGS). […]
Confocal Microscopy: Thoracic spinal cord dorsal and ventral column sections, as well as CC were imaged using an Olympus BX61 confocal microscope (Olympus America Inc., Center Valley, Pa.) using a 10× and 40× objective. […] Immunostaining was quantified using unbiased stereology (Crawford et al., 2010). […] MBP^+, GFAP^+, CD45^+, Iba1^+, CC1^+, and CXCL1^+, staining intensity was measured as percent area of positive immunoreactivity within the region of interest and intensity of signal determined by ImageJ.
Treatment with IndCl or other ERβ ligands improves myelination within CNS white tracts of mice with EAE (Khalaj et al., 2013; Kumar et al., 2013; Moore et al., 2014). To establish the pro-myelinating effects of the IndCl analogues tested, thoracic ventral column white matter was assessed for myelin basic protein (MBP) immunoreactivity.

[3] = Post (therapeutic, postEAE) treatment of EAE mice
[4] = therapeutic treatment (postEAE), day 21, vs vehicle
[5] = Pre (prophylactic, preEAE) E2 treatment of EAE mice
[6] = prophylactic E2 (preEAE), day 21, vs vehicle

Structure (SMILES) | Peripheral Chemokines: CXCL1 [1, 3] | Peripheral Chemokines: CXCL10 [1, 3] | Peripheral Inflammatory Cytokines: IFNγ [1, 3] | Peripheral Inflammatory Cytokines: IL-2 [1, 3] | Peripheral Inflammatory Cytokines: IL-6 [1, 3] | Peripheral Inflammatory Cytokines: IL-17 [1, 3] | Peripheral Inflammatory Cytokines: IL-lβ [1, 3] | Peripheral Inflammatory Cytokines: TNFα [1, 3] | Peripheral Th2 & Anti-inflammatory Cytokines: IL-4 [1, 3] | Peripheral Th2 & Anti-inflammatory Cytokines: IL-5 [1, 3] | Peripheral Th2 & Anti-inflammatory Cytokines: IL-10 [1, 3] | Peripheral Th2 & Anti-inflammatory Cytokines: IL-13 [1, 3] | IFNγ production by splenocytes [1, 4] | IL-6 production by splenocytes [1, 4] | IL-13 production by splenocytes [1, 4] | MBP staining intensity, thoracic spinal cord ventral column [2] | other results
Oc1ccc(-n2nc3ccc(O)cc3c2Cl)c(Cl)c1 [IndCl-o-Cl, 3-chloro-2-(2-chloro-4-hydroxyphenyl)-2H-indazol-5-ol] | + | − | − | ○ | − | − | ○ | ○ | ○ | ○ | ○ | − | significantly decreased | significantly decreased | attenuated | maintained at near normal levels; also recorded: increased | IFNγ production by splenocytes ([1]; therapeutic treatment (postEAE), day 21, vs vehicle, listed as o-Cl): decreased
C[C@]12CC[C@@H]3c4ccc(O)cc4CC[C@H]3[C@@H]1CC[C@@H]2O [E2, 170 estradiol] | + | − | − | ○ | − | − | ○ | ○ | ○ | ○ | ○ | ○ |  |  |  |  | Peripheral Chemokines: CXCL1 [1, 5]: +; Peripheral Chemokines: CXCL10 [1, 5]: −; Peripheral Inflammatory Cytokines: IFNγ [1, 5]: −; Peripheral Inflammatory Cytokines: IL-2 [1, 5]: −; Peripheral Inflammatory Cytokines: IL-6 [1, 5]: −; Peripheral Inflammatory Cytokines: IL-17 [1, 5]: −; Peripheral Inflammatory Cytokines: IL-lβ [1, 5]: ○; Peripheral Inflammatory Cytokines: TNFα [1, 5]: ○; Peripheral Th2 & Anti-inflammatory Cytokines: IL-4 [1, 5]: ○; Peripheral Th2 & Anti-inflammatory Cytokines: IL-5 [1, 5]: ○; Peripheral Th2 & Anti-inflammatory Cytokines: IL-10 [1, 5]: ○; Peripheral Th2 & Anti-inflammatory Cytokines: IL-13 [1, 5]: ○; IL-1β production by splenocytes [1, 6]: no effect; TNFα production by splenocytes [1, 6]: no effect
Oc1ccc(-n2nc3ccc(O)cc3c2Cl)cc1 [IndCl, chloroindazole] | + | − | − | ○ | ○ | ○ | + | ○ | ○ | ○ | ○ | ○ | significantly decreased |  |  | maintained at near normal levels; also recorded: increased | CXCL1 production by splenocytes [1, 4]: increased; CXCL10 production by splenocytes [1, 4]: decreased; IL-1β production by splenocytes [1, 4]: increased; Th2 (IL-4, IL-5, IL-13) and IL-10 cytokine production by splenocytes [1, 4]: no effect
Cc1cc(O)ccc1-n1nc2ccc(O)cc2c1Cl [IndCl-o-Me, 3-chloro-2-(4-hydroxy-2-methylphenyl)-2H-indazol-5-ol] | + | − | − | ○ | − | − | ○ | ○ | ○ | ○ | ○ | − | significantly decreasing | significantly decreasing | attenuated | maintained at near normal levels; also recorded: increased | IL-17 production by splenocytes [1, 4]: significantly decreasing; also recorded: reducing; IFNγ production by splenocytes ([1]; therapeutic treatment (postEAE), day 21, vs vehicle, listed as o-Me): decreased
